Several values for one entry are separate records, joined by “and”; a condition that tells them apart may be missing. Equal entries are not always repeated. Numbered stars: 1 amine (or outer) side, 2 acyl side, 3 side chain; on linkers, the order of the positions; unused ones are H or OH. Bridge positions count the residues as written; N and C are the ends. Square brackets hold non-standard residues; d marks the D form. Peptide text beside a SMILES is read from it. * marks the point of attachment. X1 = CC(C)C(C)C(C(=O)[*:2])N(C)[*:1]; Picolinoyl(3-OH) = O=C(c1ncccc1O)*; NMePhg = CN[CH](C(=O)O)c1ccccc1; Hyp = O=C(O)[CH]1C[CH](O)CN1; Sar = CNCC(=O)O

These results are taken from PubChem BioAssay AID342 (DTP/NCI, 2004).

The experiment relates to Swiss mice, Sarcoma 180 sc, mean tumor weight T/C. As to the kind of experiment: NCI In Vivo Anticancer Drug Screen. Data for tumor model Sarcoma 180 (subcutaneous) in Swiss mice. The following applies: endpoint: mean tumor weight, higher = larger tumour. The method, boiled down:
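Tumor-bearing mice, transplantable tumor; readout survival or tumor size; result = T/C, treated vs vehicle control.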

Where [1] appears, read: dose: 24.0 mg/kg/injection, schedule: Q01DX007 (ip), vehicle: carboxymethylcellulose (CMC).
Setting [2] is: dose: 20.0 mg/kg/injection, schedule: Q01DX007 (ip), vehicle: other.
[3] abbreviates: dose: 25.0 mg/kg/injection, schedule: Q01DX007 (ip), vehicle: carboxymethylcellulose (CMC).
Setting [4] is: dose: 50.0 mg/kg/injection, schedule: Q01DX007 (ip), vehicle: carboxymethylcellulose (CMC).
[5] abbreviates: dose: 100.0 mg/kg/injection, schedule: Q01DX007 (ip), vehicle: carboxymethylcellulose (CMC).

For `C[C@@H]1C[C@@H]([C@H](O)CC2CC(=O)NC(=O)C2)C(=O)[C@@H](C)C1`, the T/C by setting is: (dose: 3.0 mg/kg/injection, schedule: Q#A X014 (ip), vehicle: carboxymethylcellulose (CMC)) 79 % of control and 92 % of control; (dose: 6.25 mg/kg/injection, schedule: Q#A X014 (ip), vehicle: carboxymethylcellulose (CMC)) 77 % of control; (dose: 9.6 mg/kg/injection, schedule: Q01DX007 (ip), vehicle: carboxymethylcellulose (CMC)) 85 % of control and 96 % of control and 106 % of control; (dose: 12.0 mg/kg/injection, schedule: Q01DX007 (ip), vehicle: carboxymethylcellulose (CMC)) 100 % of control (2×) and 122 % of control; (dose: 12.0 mg/kg/injection, schedule: Q#A X014 (ip), vehicle: carboxymethylcellulose (CMC)) 38 % of control and 63 % of control; (dose: 12.5 mg/kg/injection, schedule: Q#A X014 (ip), vehicle: carboxymethylcellulose (CMC)) 68 % of control. Further, the T/C under setting [1] is 58 % of control and 60 % of control and 65 % of control.

For the compound `O=S(=O)(OCCCl)OCCCl`, the T/C is, setting by setting: (dose: 31.2 mg/kg/injection, schedule: Q01DX007 (ip), vehicle: other) 54 % of control; (dose: 62.5 mg/kg/injection, schedule: Q01DX007 (ip), vehicle: other) 66 % of control.

Take `NC(=O)c1[nH]cnc1/N=N/N(Cc1ccccc1)Cc1ccccc1`: the T/C (dose: 15.5 mg/kg/injection, schedule: Q#A X014 (ip), vehicle: carboxymethylcellulose (CMC)) is 49 % of control; the T/C (dose: 31.0 mg/kg/injection, schedule: Q#A X014 (ip), vehicle: carboxymethylcellulose (CMC)) was 59 % of control; the T/C (dose: 62.5 mg/kg/injection, schedule: Q#A X014 (ip), vehicle: carboxymethylcellulose (CMC)) is 61 % of control.

As to `CCC1OCCN1C(C)C` (centres undefined), the T/C was 80 % of control under setting [2]; 75 % of control (dose: 33.0 mg/kg/injection, schedule: Q01DX007 (ip), vehicle: other); 79 % of control (dose: 55.5 mg/kg/injection, schedule: Q01DX007 (ip), vehicle: saline); 63 % of control (dose: 56.0 mg/kg/injection, schedule: Q01DX007 (ip), vehicle: other); 43 % of control (dose: 83.3 mg/kg/injection, schedule: Q01DX007 (ip), vehicle: saline); 49 % of control (dose: 84.0 mg/kg/injection, schedule: Q01DX007 (ip), vehicle: other). The T/C (dose: 125.0 mg/kg/injection, schedule: Q01DX007 (ip), vehicle: saline) is 21 % of control.

`Cc1cn(C2OC(CO)C(O)C2O)c(=O)[nH]c1=O` (centres undefined): the T/C (dose: 7.5 mg/kg/injection, schedule: Q01DX007 (ip), vehicle: saline) was 90 % of control; the T/C (dose: 30.0 mg/kg/injection, schedule: Q01DX007 (ip), vehicle: saline) is 115 % of control; the T/C (dose: 60.0 mg/kg/injection, schedule: Q01DX007 (ip), vehicle: saline) is 89 % of control; the T/C (dose: 120.0 mg/kg/injection, schedule: Q01DX007 (ip), vehicle: saline) is 99 % of control.

Turning to `CCCOC(=O)C1(N)CCCC1`, the T/C runs as follows: (dose: 148.0 mg/kg/injection, schedule: Q01DX007 (ip), vehicle: saline) 42 % of control; (dose: 225.0 mg/kg/injection, schedule: Q01DX007 (ip), vehicle: saline) 28 % of control.

As to `CC(C)CC1NC(=O)C(NC(=O)c2ncccc2O)C(C)OC(=O)C(c2ccccc2)N(C)C(=O)C(C)NC(=O)C(C(C)C(C)C)N(C)C(=O)CN(C)C(=O)C2CC(O)CN2C1=O` (centres undefined) ({Picolinoyl(3-OH)}-TL[Hyp][Sar][X1]A[NMePhg]; ester 1-C; configuration not given here), the T/C by setting is: (dose: 6.25 mg/kg/injection, schedule: Q01DX007 (ip), vehicle: carboxymethylcellulose (CMC)) 85 % of control; under setting [3], 106 % of control; under setting [4], 114 % of control; (dose: 75.0 mg/kg/injection, schedule: Q01DX007 (ip), vehicle: carboxymethylcellulose (CMC)) 67 % of control; under setting [5], 100 % of control; (dose: 200.0 mg/kg/injection, schedule: Q01DX007 (ip), vehicle: carboxymethylcellulose (CMC)) 98 % of control.

Regarding `Clc1ccc(C[P+](c2ccccc2)(c2ccccc2)c2ccccc2)cc1Cl`, the T/C is, setting by setting: (dose: 3.6 mg/kg/injection, schedule: Q01DX007 (ip), vehicle: carboxymethylcellulose (CMC)) 66 % of control and 69 % of control; (dose: 5.3 mg/kg/injection, schedule: Q01DX007 (ip), vehicle: carboxymethylcellulose (CMC)) 63 % of control and 71 % of control; (dose: 8.0 mg/kg/injection, schedule: Q01DX007 (ip), vehicle: carboxymethylcellulose (CMC)) 46 % of control.

As to `COC(=O)C1=CO[C@H](C)[C@@H]2CN3CCc4c([nH]c5ccccc45)[C@@H]3C[C@H]12`, the T/C was 110 % of control (dose: 12.5 mg/kg/injection, schedule: Q01DX007 (ip), vehicle: carboxymethylcellulose (CMC)); 83 % of control under setting [3]; 84 % of control under setting [4]; 98 % of control under setting [5].

Turning to `CC(CN)CCC(C)(O)C(N)=O` (centres undefined), the T/C is 63 % of control (dose: 83.0 mg/kg/injection, schedule: Q#A X014 (ip), vehicle: methylcellulose (MC)); 49 % of control (dose: 125.0 mg/kg/injection, schedule: Q#A X014 (ip), vehicle: methylcellulose (MC)); 47 % of control (dose: 187.5 mg/kg/injection, schedule: Q#A X014 (ip), vehicle: methylcellulose (MC)).

As for `Cn1cc(F)c(=O)[nH]c1=O`, the T/C was 99 % of control and 112 % of control (dose: 10.0 mg/kg/injection, schedule: Q01DX007 (ip), vehicle: carboxymethylcellulose (CMC)); 88 % of control and 94 % of control (dose: 20.0 mg/kg/injection, schedule: Q01DX007 (ip), vehicle: carboxymethylcellulose (CMC)); 95 % of control (dose: 80.0 mg/kg/injection, schedule: Q01DX007 (ip), vehicle: carboxymethylcellulose (CMC)).

Turning to `CC1=C(/C=C/C(C)=N/NC(N)=S)C(C)(C)CCC1`, under setting [2], the T/C was 48 % of control and 66 % of control.

For `CC(C)C(=O)OCC1OC(n2cnc3c(=S)nc[nH]c32)C(OC(=O)C(C)C)C1OC(=O)C(C)C` (centres undefined), the T/C reads like this: (dose: 17.0 mg/kg/injection, schedule: Q01DX007 (ip), vehicle: steriod suspending solution) 80 % of control; under setting [1], 76 % of control; (dose: 25.0 mg/kg/injection, schedule: Q01DX007 (ip), vehicle: steriod suspending solution) 61 % of control; (dose: 37.0 mg/kg/injection, schedule: Q01DX007 (ip), vehicle: carboxymethylcellulose (CMC)) 38 % of control; (dose: 37.0 mg/kg/injection, schedule: Q01DX007 (ip), vehicle: steriod suspending solution) 66 % of control; (dose: 55.0 mg/kg/injection, schedule: Q01DX007 (ip), vehicle: carboxymethylcellulose (CMC)) 31 % of control and 47 % of control. For the same compound, the T/C runs as follows: (dose: 55.0 mg/kg/injection, schedule: Q01DX007 (ip), vehicle: steriod suspending solution) 27 % of control and 37 % of control; (dose: 84.0 mg/kg/injection, schedule: Q01DX007 (ip), vehicle: carboxymethylcellulose (CMC)) 25 % of control and 31 % of control; (dose: 84.0 mg/kg/injection, schedule: Q01DX007 (ip), vehicle: steriod suspending solution) 52 % of control; (dose: 125.0 mg/kg/injection, schedule: Q01DX007 (ip), vehicle: carboxymethylcellulose (CMC)) 8 % of control; (dose: 125.0 mg/kg/injection, schedule: Q01DX007 (ip), vehicle: steriod suspending solution) 26 % of control; (dose: 188.0 mg/kg/injection, schedule: Q01DX007 (ip), vehicle: steriod suspending solution) 14 % of control and 17 % of control. Also, the T/C by setting is: (dose: 282.0 mg/kg/injection, schedule: Q01DX007 (ip), vehicle: steriod suspending solution) 16 % of control; (dose: 423.0 mg/kg/injection, schedule: Q01DX007 (ip), vehicle: steriod suspending solution) 16 % of control.

A word on the T/C: it is the ratio of treated to control.
